Results from the supplement of paper PMC4862054.

Legend:
BT-474 [1] = details: 72 h
Method in brief: (§1)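 In this assay, breast cancer cell lines spent 72 h with compound at 5 concentrations in 10-fold steps over a compound-specific 10,000-fold range. The first readout was cell death by CellTox Green fluorescence, and the second was viability by CellTiter-Glo luminescence, each normalised per plate to 0.1 % DMSO and a positive kill control. EC50 came from the dose-response curves, censored at the top concentration.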

BT-549 [2] = details: 72 h
Method in brief: as §1

CAL-120 [3] = details: 72 h
Method in brief: as §1

CAL-148 [4] = details: 72 h
Method in brief: as §1

CAL-51 [5] = details: 72 h
Method in brief: as §1

CAL-85-1 [6] = details: 72 h
Method in brief: as §1

DU-4475 [7] = details: 72 h
Method in brief: as §1

HCC1143 [8] = details: 72 h
Method in brief: as §1

HCC1599 [9] = details: 72 h
Method in brief: as §1

HCC1937 [10] = details: 72 h
Method in brief: as §1

HDQ-P1 [11] = details: 72 h
Method in brief: as §1

MDA-MB-436 [12] = details: 72 h
Method in brief: as §1

MDA-MB-468 [13] = details: 72 h
Method in brief: as §1

MFM-223 [14] = details: 72 h
Method in brief: as §1

SK-BR-3 [15] = details: 72 h
Method in brief: as §1

BT-549 [16] = details: 72 h; remark: listed apart in the source
Description: (§2)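 Drug sensitivity and resistance testing (DSRT) of breast cancer cell lines in 384-well plates, 5 concentrations in 10-fold dilutions over a compound-specific 10,000-fold range. After 72 h, cytotoxicity was read by CellTox Green fluorescence and viability by CellTiter-Glo luminescence (multiplexed), normalised to DMSO and benzethonium chloride controls. EC50 is the inflection point of the fitted dose-response curve (bottom asymptote free, so it can be relative for partial curves) and is censored at the highest tested concentration. Rows with DSS 0 (no meaningful response) were excluded.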

CAL-51 [17] = details: 72 h; remark: listed apart in the source
Description: as §2

MDA-MB-436 [18] = details: 72 h; remark: listed apart in the source
Description: as §2

MDA-MB-468 [19] = details: 72 h; remark: listed apart in the source
Description: as §2

MDA-MB-453 [20] = experiment: drug sensitivity score (DSS), CellTox Green (DSS (AUC-based score)); higher = stronger drug effect (viability inhibition or cytotoxicity); extreme values may be limits of the assay; details: incubation time: 72 h
Method in brief: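 Each compound occupied 5 concentrations in 10-fold steps over its own 10,000-fold range in 384-well plates, into which breast cancer cell lines were seeded as 20 µl suspension. Following 72 h of incubation, CellTox Green fluorescence (485/520 nm) was measured, and CellTiter-Glo luminescence was measured after 10 min at room temperature. Plates were individually normalised to 0.1 % DMSO and a positive kill control. From the area under the fitted dose-response curve, a drug sensitivity score was calculated.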

Hs578T [21] = details: 72 h
Method in brief: as §1

MDA-MB-231 [22] = details: 72 h
Method in brief: as §1

CAL-148 [23] = details: 72 h; remark: listed apart in the source
Method in brief: (§3)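 Viability of breast cancer cell lines was measured with CellTiter-Blue after 72 h of incubation on compound-loaded 384-well plates. Cells were seeded in 20 µl onto compound dissolved in 5 µl medium, and 2.5 µl reagent was added for 2 h at 37 °C before reading at 560/590 nm. EC50 was fitted from percent-inhibition dose-response data censored at the highest concentration, normalised per plate to vehicle and a positive kill control, with zero drug sensitivity score rows dropped.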

CAL-51 [24] = details: 72 h; remark: listed apart in the source
Method in brief: as §3

CAL-85-1 [25] = details: 72 h; remark: listed apart in the source
Method in brief: as §3

DU-4475 [26] = details: 72 h; remark: listed apart in the source
Method in brief: as §3

HDQ-P1 [27] = details: 72 h; remark: listed apart in the source
Method in brief: as §3

MDA-MB-453 [28] = details: 72 h
Method in brief: as §3

BT-474 [29] = details: 72 h; remark: listed apart in the source
Method in brief: as §3

BT-549 [30] = details: 72 h; remark: listed apart in the source
Method in brief: as §3

CAL-120 [31] = details: 72 h; remark: listed apart in the source
Method in brief: as §3

HCC1143 [32] = details: 72 h; remark: listed apart in the source
Method in brief: as §3

HCC1599 [33] = details: 72 h; remark: listed apart in the source
Method in brief: as §3

HCC1937 [34] = details: 72 h; remark: listed apart in the source
Method in brief: as §3

Hs578T [35] = details: 72 h; remark: listed apart in the source
Method in brief: as §3

MDA-MB-231 [36] = details: 72 h; remark: listed apart in the source
Method in brief: as §3

MDA-MB-436 [37] = details: 72 h; remark: listed apart in the source
Method in brief: as §3

MDA-MB-468 [38] = details: 72 h; remark: listed apart in the source
Method in brief: as §3

MFM-223 [39] = details: 72 h; remark: listed apart in the source
Method in brief: as §3

SK-BR-3 [40] = details: 72 h; remark: listed apart in the source
Method in brief: as §3

CAL-120 [41] = details: 72 h; remark: listed apart in the source
Description: as §2

CAL-148 [42] = details: 72 h; remark: listed apart in the source
Description: as §2

CAL-85-1 [43] = details: 72 h; remark: listed apart in the source
Description: as §2

DU-4475 [44] = details: 72 h; remark: listed apart in the source
Description: as §2

HCC1599 [45] = details: 72 h; remark: listed apart in the source
Description: as §2

HCC1937 [46] = details: 72 h; remark: listed apart in the source
Description: as §2

HDQ-P1 [47] = details: 72 h; remark: listed apart in the source
Description: as §2

Hs578T [48] = details: 72 h; remark: listed apart in the source
Description: as §2

MDA-MB-231 [49] = details: 72 h; remark: listed apart in the source
Description: as §2

MFM-223 [50] = details: 72 h; remark: listed apart in the source
Description: as §2

Which results are given for `CC[C@H](C)C(=O)O[C@H]1C[C@H](O)C=C2C=C[C@H](C)[C@H](CC[C@@H](O)C[C@@H](O)CC(=O)O)[C@H]21` [Pravastatin]?
EC50, CellTiter-Glo (BT-474 [1]): 2340 nM; EC50, CellTiter-Glo (BT-549 [2]): 2640 nM; EC50, CellTiter-Glo (CAL-120 [3]): 2310 nM; EC50, CellTiter-Glo (CAL-148 [4]): 6540 nM; EC50, CellTiter-Glo (CAL-51 [5]): 78 nM; EC50, CellTiter-Glo (CAL-85-1 [6]): 8620 nM; EC50, CellTiter-Glo (DU-4475 [7]): 6590 nM; EC50, CellTiter-Glo (HCC1143 [8]): 2450 nM; EC50, CellTiter-Glo (HCC1599 [9]): 3060 nM; EC50, CellTiter-Glo (HCC1937 [10]): 5960 nM; EC50, CellTiter-Glo (HDQ-P1 [11]): 4740 nM; EC50, CellTiter-Glo (MDA-MB-436 [12]): 27.6 nM; EC50, CellTiter-Glo (MDA-MB-468 [13]): 5910 nM; EC50, CellTiter-Glo (MFM-223 [14]): > 10000 nM; EC50, CellTiter-Glo (SK-BR-3 [15]): 3820 nM; EC50, CellTox Green (BT-549 [16]): > 10000 nM; EC50, CellTox Green (CAL-51 [17]): 3380 nM; EC50, CellTox Green (MDA-MB-436 [18]): 15.7 nM; EC50, CellTox Green (MDA-MB-468 [19]): 5470 nM; drug sensitivity score (MDA-MB-453 [20]): 0

Which results are given for `COc1cc([C@@H]2c3cc4c(cc3[C@@H](O[C@@H]3O[C@@H]5CO[C@@H](c6cccs6)O[C@H]5[C@H](O)[C@H]3O)[C@H]3COC(=O)[C@H]23)OCO4)cc(OC)c1O` [Teniposide]?
EC50, CellTiter-Glo (BT-474 [1]): 888 nM; EC50, CellTiter-Glo (BT-549 [2]): 359 nM; EC50, CellTiter-Glo (CAL-120 [3]): 2690 nM; EC50, CellTiter-Glo (CAL-148 [4]): 393 nM; EC50, CellTiter-Glo (CAL-51 [5]): 666 nM; EC50, CellTiter-Glo (CAL-85-1 [6]): 1180 nM; EC50, CellTiter-Glo (DU-4475 [7]): 184 nM; EC50, CellTiter-Glo (HCC1143 [8]): 842 nM; EC50, CellTiter-Glo (HCC1599 [9]): 176 nM; EC50, CellTiter-Glo (HCC1937 [10]): 2710 nM; EC50, CellTiter-Glo (HDQ-P1 [11]): 5210 nM; EC50, CellTiter-Glo (Hs578T [21]): 2060 nM; EC50, CellTiter-Glo (MDA-MB-231 [22]): 1910 nM; EC50, CellTiter-Glo (MDA-MB-436 [12]): 204 nM; EC50, CellTiter-Glo (MDA-MB-468 [13]): 614 nM; EC50, CellTiter-Glo (MFM-223 [14]): 1740 nM; EC50, CellTiter-Glo (SK-BR-3 [15]): 138 nM; EC50, CellTiter-Blue viability (CAL-148 [23]): 220 nM; EC50, CellTiter-Blue viability (CAL-51 [24]): 75.8 nM; EC50, CellTiter-Blue viability (CAL-85-1 [25]): 1450 nM; EC50, CellTiter-Blue viability (DU-4475 [26]): 37.1 nM; EC50, CellTiter-Blue viability (HDQ-P1 [27]): 1700 nM; EC50, CellTiter-Blue viability (MDA-MB-453 [28]): 1840 nM; EC50, CellTiter-Blue viability (BT-474 [29]): 5940 nM; EC50, CellTiter-Blue viability (BT-549 [30]): 1510 nM; EC50, CellTiter-Blue viability (CAL-120 [31]): 999 nM; EC50, CellTiter-Blue viability (HCC1143 [32]): 829 nM; EC50, CellTiter-Blue viability (HCC1599 [33]): 1740 nM; EC50, CellTiter-Blue viability (HCC1937 [34]): 103 nM; EC50, CellTiter-Blue viability (Hs578T [35]): 3830 nM; EC50, CellTiter-Blue viability (MDA-MB-231 [36]): 2180 nM; EC50, CellTiter-Blue viability (MDA-MB-436 [37]): 1180 nM; EC50, CellTiter-Blue viability (MDA-MB-468 [38]): 1080 nM; EC50, CellTiter-Blue viability (MFM-223 [39]): 1850 nM; EC50, CellTiter-Blue viability (SK-BR-3 [40]): 91.7 nM; EC50, CellTox Green (CAL-120 [41]): 4090 nM; EC50, CellTox Green (CAL-148 [42]): 10.7 nM; EC50, CellTox Green (CAL-51 [17]): 879 nM; EC50, CellTox Green (CAL-85-1 [43]): 2390 nM; EC50, CellTox Green (DU-4475 [44]): 1620 nM; EC50, CellTox Green (HCC1599 [45]): 350 nM; EC50, CellTox Green (HCC1937 [46]): 100 nM; EC50, CellTox Green (HDQ-P1 [47]): 2380 nM; EC50, CellTox Green (Hs578T [48]): 4000 nM; EC50, CellTox Green (MDA-MB-231 [49]): 1190 nM; EC50, CellTox Green (MDA-MB-468 [19]): 4760 nM; EC50, CellTox Green (MFM-223 [50]): 835 nM; drug sensitivity score (MDA-MB-453 [20]): 0
